Here are results for 13 compounds from patent US20240116985A1, “STAPLED PEPTIDES AND METHODS THEREOF” (priority 2020, published 2024).

Assay [1] concerns the target T1, full-length beta-Catenin (Uniprot ID P35222) (Homo sapiens, UniProt P35222).
T1 construct: 10 nM full-length beta-Catenin (Uniprot ID P35222)
T1 sequence (P35222 1-781): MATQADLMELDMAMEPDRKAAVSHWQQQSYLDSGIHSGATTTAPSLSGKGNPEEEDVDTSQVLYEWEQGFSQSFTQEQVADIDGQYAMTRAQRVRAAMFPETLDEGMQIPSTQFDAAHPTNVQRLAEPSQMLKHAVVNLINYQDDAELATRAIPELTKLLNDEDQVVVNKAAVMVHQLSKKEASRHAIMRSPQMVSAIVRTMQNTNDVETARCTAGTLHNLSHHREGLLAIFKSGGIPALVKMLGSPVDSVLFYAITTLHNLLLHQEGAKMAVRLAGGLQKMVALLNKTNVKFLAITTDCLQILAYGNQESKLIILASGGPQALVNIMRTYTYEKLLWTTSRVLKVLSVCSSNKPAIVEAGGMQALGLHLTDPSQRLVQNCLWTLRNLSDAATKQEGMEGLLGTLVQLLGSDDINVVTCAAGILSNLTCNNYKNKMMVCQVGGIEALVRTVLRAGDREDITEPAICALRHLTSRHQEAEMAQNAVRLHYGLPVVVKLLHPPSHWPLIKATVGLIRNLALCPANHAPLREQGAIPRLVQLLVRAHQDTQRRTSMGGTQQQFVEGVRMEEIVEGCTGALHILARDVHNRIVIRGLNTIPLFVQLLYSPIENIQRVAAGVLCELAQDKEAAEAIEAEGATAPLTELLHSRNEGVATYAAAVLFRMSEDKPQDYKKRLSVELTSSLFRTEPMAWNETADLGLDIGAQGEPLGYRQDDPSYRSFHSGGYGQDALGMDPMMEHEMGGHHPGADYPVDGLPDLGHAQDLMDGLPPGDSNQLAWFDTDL
The assay can be described thus: Fluorescence polarization IC50 (beta-catenin / 5FAM-TCF4 10-53 competition). The conditions noted are these: fluorescence polarization; read-out: beta-Catenin FP IC50. It is filed as binding.

Assay [2] concerns the target T2, beta-catenin/TCF4 engagement (Homo sapiens, UniProt P35222).
T2 construct: expressed in transfected cells; host or cells: HEK293
T2 sequence (P35222 1-781): T1 sequence (P35222 1-781)
The assay can be described thus: Nano-BRET target engagement assay (B-cat-Halo & TCF4-Luc in HEK293 cells). The assay is classed as cell-based. The following applies: absolute IC50; read-out: NanoBRET Abs IC50. (BRET reads energy transfer from a luciferase to a nearby fluorophore.)

A value given as a limit tells only on which side of the number the result lay.

For orientation: IC50 means the concentration that inhibits the measured activity by half. Turning to `CCNC(=O)CC[C@@H]1NC(=O)[C@H](Cc2cccc(C(=O)O)c2)NC(=O)[C@H](CC(=O)O)NC(=O)C2(CCCC=CCCCOC(=O)N3CC[C@@](C(=O)N[C@@H](Cc4ccsc4)C(=O)N[C@@H](Cc4csc5ccccc45)C(=O)N[C@@H](C)C(N)=O)(C3)NC(=O)[C@H](C(C)C)NC(=O)[C@H](Cc3ccccc3)NC(=O)[C@H](C)NC1=O)CCCC=CC[C@]1(CCCN1C(C)=O)C(=O)N[C@@H](CC(=O)O)C(=O)N[C@@H](CC(C)(C)C)C(=O)N2` (stereo partly drawn) [I-2302, Ac-PL3-Asp-Npg-B5-Asp-3COOHF-[NHEt]GlnR-Ala-Phe-Val-PyrS2-3Thi-BztA-Ala-NH2], the IC50 in assay [1] was determined as 5 nM; in assay [2] it was 2500 nM.
Regarding `CC(=O)N1CCC[C@]12CC=CCCCC1(CCCC=CCCCOC(=O)N3CC[C@@](C(=O)N[C@@H](Cc4ccsc4)C(=O)N[C@@H](Cc4csc5ccccc45)C(=O)N[C@@H](C)C(N)=O)(C3)NC(=O)[C@H](C(C)C)NC(=O)[C@H](Cc3ccccc3)NC(=O)[C@H](C)NC(=O)[C@H](CCC(=O)N(C)C)NC(=O)[C@H](Cc3cccc(C(=O)O)c3)NC(=O)[C@H](CC(=O)O)NC1=O)NC(=O)[C@H](CC(C)(C)C)NC(=O)[C@H](CC(=O)O)NC2=O` (stereo partly drawn) [I-2303, Ac-PL3-Asp-Npg-B5-Asp-3COOHF-[NMe2]GlnR-Ala-Phe-Val-PyrS2-3Thi-BztA-Ala-NH2], the results for the IC50 in assay [1] and in assay [2] were 5 nM and 1200 nM, respectively.
The corresponding values for `CC(C)COC(=O)N1CCC[C@]12CC=CCCCC1(CCCC=CCCCOC(=O)N3CC[C@@](C(=O)N[C@@H](Cc4ccccc4Cl)C(=O)N[C@@H](Cc4csc5ccccc45)C(=O)N[C@@H](C)C(N)=O)(C3)NC(=O)[C@H](CC(C)C)NC(=O)[C@H](Cc3ccccc3)NC(=O)[C@H](C)NC(=O)[C@H](C)NC(=O)[C@H](Cc3cccc(C(=O)O)c3)NC(=O)[C@H](CC(=O)O)NC1=O)NC(=O)[C@H](CC(C)(C)C)NC(=O)[C@H](CC(=O)O)NC2=O` (stereo partly drawn) [I-2305, CO2iBu-PL3-Asp-Npg-B5-Asp-3COOHF-Ala-Ala-Phe-Leu-PyrS2-2C1F-BztA-Ala-NH2] are 65 nM and > 20000 nM.
For `C[C@@H]1NC(=O)[C@H](C)NC(=O)[C@H](CC(=O)O)NC(=O)[C@H](CC(=O)O)NC(=O)C2(CCCC=CCCCOC(=O)N3CC[C@@](C(=O)N[C@@H](Cc4ccsc4)C(=O)N[C@@H](Cc4csc5ccccc45)C(=O)N[C@@H](CCC(N)=O)C(N)=O)(C3)NC(=O)[C@H](CC(N)=O)NC(=O)[C@H](Cc3ccccc3)NC1=O)CCCC=CCOc1cccc(c1)C(=O)N[C@@H](CC(=O)O)C(=O)N[C@@H](CC(C)(C)C)C(=O)N2` (stereo partly drawn) [I-2306, BzAm3Oallyl-Asp-Npg-B5-Asp-Asp-Ala-Ala-Phe-Asn-PyrS2-3Thi-BztA-Gln-NH2] the same measures were 45 nM and > 20000 nM.
For `CC(=O)N1CCC[C@]12CC=CCCCC1(CCCC=CCCCOC(=O)N3CC[C@@](C(=O)N[C@@H](Cc4ccsc4)C(=O)N[C@@H](Cc4cccc(Br)c4)C(=O)N[C@@H](CCC(N)=O)C(N)=O)(C3)NC(=O)[C@H](CC(C)C)NC(=O)[C@H](Cc3ccccc3)NC(=O)[C@H](C)NC(=O)[C@H](C)NC(=O)[C@H](Cc3cccc(C(=O)O)c3)NC(=O)[C@H](CC(=O)O)NC1=O)NC(=O)[C@H](CC(C)(C)C)NC(=O)[C@H](CC(=O)O)NC2=O` (stereo partly drawn) [I-2307, Ac-PL3-Asp-Npg-B5-Asp-3COOHF-Ala-Ala-Phe-Leu-PyrS2-3Thi-3BrF-Gln-NH2], the IC50 in assay [1] worked out at 16 nM; in assay [2], 8900 nM.
For the compound `CC(=O)N1CCC[C@]12CC=CCCCC1(CCCC=CCCCOC(=O)N3CC[C@@](C(=O)N[C@@H](Cc4ccsc4)C(=O)N[C@@H](Cc4cccc(Br)c4)C(=O)N[C@@H](C)C(N)=O)(C3)NC(=O)[C@H](C(C)C)NC(=O)[C@H](Cc3ccccc3)NC(=O)[C@H](C)NC(=O)[C@H](CCC(N)=O)NC(=O)[C@H](Cc3cccc(C(=O)O)c3)NC(=O)[C@H](CC(=O)O)NC1=O)NC(=O)[C@H](CC(C)(C)C)NC(=O)[C@H](CC(=O)O)NC2=O` (stereo partly drawn) [I-2308, Ac-PL3-Asp-Npg-B5-Asp-3COOHF-Gln-Ala-Phe-Val-PyrS2-3Thi-3BrF-Ala-NH2], the IC50 came out at 8 nM in assay [1] and 6000 nM in assay [2].
For `CC(=O)N1CCC[C@]12CC=CCCCC1(CCCC=CCCCOC(=O)N3CC[C@@](C(=O)N[C@@H](Cc4ccsc4)C(=O)N[C@@H](Cc4ccc5ccccc5c4)C(=O)N[C@@H](CCC(N)=O)C(N)=O)(C3)NC(=O)[C@H](CC(C)C)NC(=O)[C@H](Cc3ccccc3)NC(=O)[C@H](C)NC(=O)[C@H](C)NC(=O)[C@H](Cc3cccc(C(=O)O)c3)NC(=O)[C@H](CC(=O)O)NC1=O)NC(=O)[C@H](CC(C)(C)C)NC(=O)[C@H](CC(=O)O)NC2=O` (stereo partly drawn) [I-2309, Ac-PL3-Asp-Npg-B5-Asp-3COOHF-Ala-Ala-Phe-Leu-PyrS2-3Thi-2NapA-Gln-NH2], the IC50 in assay [1] turned out to be 17 nM; in assay [2], 13700 nM.
As for `CC(=O)N1CCC[C@]12CC=CCCCC1(CCCC=CCCCOC(=O)N3CC[C@@](C(=O)N[C@@H](Cc4ccsc4)C(=O)N[C@@H](Cc4ccc5ccccc5c4)C(=O)N[C@@H](C)C(N)=O)(C3)NC(=O)[C@H](C(C)C)NC(=O)[C@H](Cc3ccccc3)NC(=O)[C@H](C)NC(=O)[C@H](CCC(N)=O)NC(=O)[C@H](Cc3cccc(C(=O)O)c3)NC(=O)[C@H](CC(=O)O)NC1=O)NC(=O)[C@H](CC(C)(C)C)NC(=O)[C@H](CC(=O)O)NC2=O` (stereo partly drawn) [I-2310, Ac-PL3-Asp-Npg-B5-Asp-3COOHF-Gln-Ala-Phe-Val-PyrS2-3Thi-2NapA-Ala-NH2], the IC50 in assay [1] worked out at 18 nM; in assay [2] it was 8900 nM.
For `CC(=O)N1CCC[C@]12CC=CCCCC1(CCCC=CCCCOC(=O)N3CC[C@@](C(=O)N[C@@H](Cc4ccsc4)C(=O)N[C@H](C(=O)N[C@@H](CCC(N)=O)C(N)=O)[C@H](C)c4ccc5ccccc5c4)(C3)NC(=O)[C@H](CC(C)C)NC(=O)[C@H](Cc3ccccc3)NC(=O)[C@H](C)NC(=O)[C@H](C)NC(=O)[C@H](Cc3cccc(C(=O)O)c3)NC(=O)[C@H](CC(=O)O)NC1=O)NC(=O)[C@H](CC(C)(C)C)NC(=O)[C@H](CC(=O)O)NC2=O` (stereo partly drawn) [I-2311, Ac-PL3-Asp-Npg-B5-Asp-3COOHF-Ala-Ala-Phe-Leu-PyrS2-3Thi-RbMe2NapA-Gln-NH2] the same measures were 5 nM and 5200 nM.
`CC(=O)N1CCC[C@]12CC=CCCCC1(CCCC=CCCCOC(=O)N3CC[C@@](C(=O)N[C@@H](Cc4ccsc4)C(=O)N[C@H](C(=O)N[C@@H](C)C(N)=O)[C@H](C)c4ccc5ccccc5c4)(C3)NC(=O)[C@H](C(C)C)NC(=O)[C@H](Cc3ccccc3)NC(=O)[C@H](C)NC(=O)[C@H](CCC(N)=O)NC(=O)[C@H](Cc3cccc(C(=O)O)c3)NC(=O)[C@H](CC(=O)O)NC1=O)NC(=O)[C@H](CC(C)(C)C)NC(=O)[C@H](CC(=O)O)NC2=O` (stereo partly drawn) [I-2312, Ac-PL3-Asp-Npg-B5-Asp-3COOHF-Gln-Ala-Phe-Val-PyrS2-3Thi-RbMe2NapA-Ala-NH2]: the IC50 in assay [1] is 5 nM; in assay [2] it was 5200 nM.
With `CC(=O)N1CCC[C@]12CC=CCCCC1(CCCC=CCCCOC(=O)N3CC[C@@](C(=O)N[C@@H](Cc4ccsc4)C(=O)N[C@H](C(=O)N[C@@H](CCC(N)=O)C(N)=O)[C@@H](C)c4ccc5ccccc5c4)(C3)NC(=O)[C@H](CC(C)C)NC(=O)[C@H](Cc3ccccc3)NC(=O)[C@H](C)NC(=O)[C@H](C)NC(=O)[C@H](Cc3cccc(C(=O)O)c3)NC(=O)[C@H](CC(=O)O)NC1=O)NC(=O)[C@H](CC(C)(C)C)NC(=O)[C@H](CC(=O)O)NC2=O` (stereo partly drawn) [I-2313, Ac-PL3-Asp-Npg-B5-Asp-3COOHF-Ala-Ala-Phe-Leu-PyrS2-3Thi-SbMe2NapA-Gln-NH2], the IC50 was found to be 22 nM in assay [1] and 24300 nM in assay [2].
The corresponding values for `CC(=O)N1CCC[C@]12CC=CCCCC1(CCCC=CCCCOC(=O)N3CC[C@@](C(=O)N[C@@H](Cc4ccsc4)C(=O)N[C@H](C(=O)N[C@@H](C)C(N)=O)[C@@H](C)c4ccc5ccccc5c4)(C3)NC(=O)[C@H](C(C)C)NC(=O)[C@H](Cc3ccccc3)NC(=O)[C@H](C)NC(=O)[C@H](CCC(N)=O)NC(=O)[C@H](Cc3cccc(C(=O)O)c3)NC(=O)[C@H](CC(=O)O)NC1=O)NC(=O)[C@H](CC(C)(C)C)NC(=O)[C@H](CC(=O)O)NC2=O` (stereo partly drawn) [I-2314, Ac-PL3-Asp-Npg-B5-Asp-3COOHF-Gln-Ala-Phe-Val-PyrS2-3Thi-SbMe2NapA-Ala-NH2] are 48 nM and > 20000 nM.
For `CC(=O)N1CCC[C@]12CC=CCCCC1(CCCC=CCCCOC(=O)N3CC[C@@](C(=O)N[C@@H](Cc4ccccc4C(F)(F)F)C(=O)N[C@@H](Cc4csc5ccccc45)C(=O)N[C@@H](C)C(N)=O)(C3)NC(=O)[C@H](CC(C)C)NC(=O)[C@H](Cc3ccccc3)NC(=O)[C@H](C)NC(=O)[C@H](CCC(=O)N3CCC(N4CCCCC4)CC3)NC(=O)[C@H](Cc3cccc(C(=O)O)c3)NC(=O)[C@H](CC(=O)O)NC1=O)NC(=O)[C@H](CC(C)(C)C)NC(=O)[C@H](CC(=O)O)NC2=O` (stereo partly drawn) [I-2317, Ac-PL3-Asp-Npg-B5-Asp-3COOHF-[4Pippip]GlnR-Ala-Phe-Leu-PyrS2-2F3MeF-BztA-Ala-NH2] the same measures were 12 nM and 18800 nM.
